Where two headings read alike, the source gives them in different places.
Assay: Measurement of LogP values by HPLC on reversed phase columns (EEC directive 79/831 Annex V.A8)
Format: physicochemical
Settings: for chromatographic logP: reversed-phase HPLC column (Agilent Zorbax Eclipse C18)
Experimental: Measurement of LogP values was performed according to EEC directive 79/831 Annex V.A8 by HPLC (High Performance Liquid Chromatography) on reversed phase columns (Agilent Zorbax Eclipse C18) with the following methods: • ^[a] LogP value is determined by measurement of LC-UV and/or MS and/or ELS, in an acidic range, with 0.1% formic acid in water and acetonitrile as eluent (linear gradient from 10% acetonitrile to 95% acetonitrile). • ^[b] LogP value is determined by measurement of LC-UV and/or MS and/or ELS, in a neutral range, with 0.001 molar ammonium acetate solution in water and acetonitrile as eluent (linear gradient from 10% acetonitrile to 95% acetonitrile). If more than one LogP value is available within the same method, all the values are given and separated by "+". Calibration was done with straight-chain alkan2-ones (with 3 to 16 carbon atoms) with known LogP values (measurement of LogP values using retention times with linear interpolation between successive alkanones). Lambda-max-values were determined using UV-spectra from 200 nm to 400 nm and the peak values of the chromatographic signals.

[1] = [Method A] as printed in the preparation examples (taken as method [a], acidic range)
[2] = method [a]: acidic range, 0.1% formic acid in water and acetonitrile as eluent (linear gradient 10% to 95% acetonitrile)

Compound	chromatographic logP [1]	chromatographic logP [2]	also measured
Cc1ccc(-c2noc(C(F)(F)Cl)n2)s1 [X-a, 5-[chloro(difluoro)methyl]-3-(5-methyl-2-thienyl)-1,2,4-oxadiazole]	4.18	4.18	
CONC(=O)N(Cc1ccc(-c2noc(C(F)(F)Cl)n2)cc1)OC [1.04, 1-(4-{5-[Chloro(difluoro)methyl]-1,2,4-oxadiazol-3-yl}benzyl)-1,3-dimethoxyurea]	2.92	2.92	
COC(C)C(=O)N(Cc1ccc(-c2noc(C(F)(F)Cl)n2)cc1)OC (stereo not shown) [1.05, N-(4-{5-[chloro(difluoro)methyl]-1,2,4-oxadiazol-3-yl}benzyl)-N,2-dimethoxypropan-amide]	3.31	3.31	
Cc1ccc(C(N)=NO)s1 [N'-hydroxy-5-methylthiophene-2-carboximidamide]			chromatographic logP ([Method B] as printed in the preparation examples (taken as method [b], neutral range, 0.001 molar ammonium acetate)): 1.17
Cc1ccc(-c2noc(C(F)(F)Cl)n2)cc1 [X-b, 3-(4-Methylphenyl)-5-(chlorodifluoromethyl)-1,2,4-oxadiazole]	4.55	4.55	
OCc1ccc(-c2noc(C(F)(F)Cl)n2)cc1F [VIII"-a, (4-{5-[chloro(difluoro)methyl]-1,2,4-oxadiazol-3-yl}-2-fluorophenyl)methanol]	2.98	2.98	
FC(F)(Cl)c1nc(-c2ccc(CBr)s2)no1 [VIII'-b, 3-[5-(bromomethyl)-2-thienyl]-5-[chloro(difluoro)methyl]-1,2,4-oxadiazole]	4.2	4.2	
Fc1cc(-c2noc(C(F)(F)Cl)n2)ccc1CBr [VIII'-a, 3-[4-(bromomethyl)-3-fluorophenyl]-5-[chloro(difluoro)methyl]-1,2,4-oxadiazole]	4.66	4.66	
CCOC(=O)c1cnn(Cc2ccc(-c3noc(C(F)(F)Cl)n3)s2)c1 [1.02, ethyl 1-[(5-{5-[chloro(difluoro)methyl]-1,2,4-oxadiazol-3-yl}-2-thienyl)methyl]-1H-pyrazole-4-carboxylate]		3.81	
CCOC(=O)c1cnn(Cc2ccc(-c3noc(C(F)(F)Cl)n3)cc2F)c1 [1.01, ethyl 1-(4-{5-[chloro(difluoro)methyl]-1,2,4-oxadiazol-3-yl}-2-fluorobenzyl)-1H-pyrazole-4-carboxytate]			LogP: 3.98^[a]
CONCc1ccc(-c2noc(C(F)(F)Cl)n2)cc1 [V-a, 1-[4-[5-[Chloro(difluoro)methyl]-1.2.4-oxadiazol-3-yl]phenyl]-N-methoxy-methanamine]	3.09	3.09	
C#Cc1ccn(Cc2ccc(-c3noc(C(F)(F)Cl)n3)cc2)n1 [1.03, 5-[chloro(difluoro)methyl]-3-{4-[(3-ethynyl-1H-pyrazol-1-yl)methyl]phenyl}-1,2,4-oxadiazole]	3.31	3.81	
FC(F)(Cl)c1nc(-c2ccc(CBr)cc2)no1 [VIII'-c, 3-[4-(Bromomethyl)phenyl]-5-(chlorodifluoromethyl)-1,2,4-oxadiazole]	4.48	4.48	
CCOC(=O)c1cnn(Cc2ccc(-c3noc(C(F)(F)Cl)n3)cc2F)c1 [I.01]			LogP [1]: 3.98
CCOC(=O)c1cnn(Cc2ccc(-c3noc(C(F)(F)Cl)n3)s2)c1 [I.02]			LogP [1]: 3.81

Source: patent EP4295688A1, “ACTIVE COMPOUND COMBINATION” (Bayer Aktiengesellschaft, priority 2022, dated 2023)
